What all share (assay type): in vivo, mouse
The test system of one test is mice. Description: DSS colitis model in mice, hP5 (Example 7). As for the experimental part:
On day 0 of the study, the water supply was removed and replaced with 3% Dextran Sulfate Sodium (DSS) From day 0 to day 6, this solution was the only source of fluids. Water was administered for the rest of the experiment (day 7-11). Healthy controls received water only.
From day 3 to day 10 mice were treated with either hP5, or a sequence-scrambled control peptide. Peptides were dissolved in DMSO at 10 mg/ml and stored at +4° C. Before administration, the stock solution was diluted 1:10 in water 10% Solutol® HS 15 (BASF). Final vehicle concentrations: 1% DMSO, 10% solutol in water. 200 μl of these freshly prepared solutions of hP5, its scrambled control or vehicle were injected intraperitoneally with a 25 G needle.
Animals were weighted daily and monitored on days 3, 4, 5, 6, 7 and 10 for rectal bleeding and stool consistency. For each group, the disease activity index (DAI) was determined by evaluating changes in weight, stool consistency and presence of gross blood during the study, as described below:
To determine the presence of occult blood in stool, a pea-sized stool sample was placed on a slide. Then two drops of reagent (Hemocult Sensa, Beckman Coulter) were placed onto the stool sample on the slide and a change of colour was observed. The presence of occult blood was graded using a score of 0 for no colour; 1 for a very light blue (+/−) colour taking over 30 seconds to appear, 2 for a blue colour developing in […] (+); 3 for an immediate change in colour (++) and 4 for gross blood observable on the slide.
On day 11 mice were euthanized by cervical dislocation to allow colon length evaluation. An incision was done in the abdomen to expose the colon. The stool in the colon was removed flushing with saline. The entire colon from cecum to anus was removed and the length was measured and reported as colon length (cm).
Data were analyzed using Graph Pad Prism. Results are given as means±standard error of the mean. The BW score, stool score and blood score were analyzed using two-way ANOVA test, Bonferroni post test. Colon length was analysed using one-way ANOVA, Dunn's post test. *P≤0.05; **P≤0.01; ***P≤0.001

The next test has as its system C57BL/6 mice. Description: Cecal Ligation and Puncture model in mice, hP5 (Example 6). The settings on record: 200 μl i.p. at −1 h, 0 h, +4 h and +24 hours; n=15/group. As for the experimental part: Mortality was followed twice a day for 10 days. Data were analyzed using GraphPad Prism Survival curve analysis.
For the experiment the mice underwent a standardized preparation for laparotomy (anaesthesia with 2% inhaled isoflurane in oxygen, shaving with animal clippers, alcohol scrub). A 1 cm incision was made on the midline. The cecum was exposed and will be tightly ligated at 50-80% over its base with a 4-0 silk suture avoiding bowel obstruction. The cecum was then punctured once with a 23G needle. The cecum was gently squeezed until feces be just visible through the puncture, and placed again in the abdominal cavity. The incision was thereafter be closed with a 4-0 silk. 200 μl of hP5 or its scrambled peptide control were freshly dissolved in water 10% DMSO, 9% solutol and injected intraperitoneally with a 22 G needle at the following time points: −1, 0, +4, +24. No fluid resuscitation was administered.
Survival and Moribundity were observed twice a day for 10 days.

The subject of a further test is BALB/c mice. The test is described as follows: endotoxin-induced septic shock in mice, hP5 (Example 5). As to conditions: 200 microliters peptide i.p. at −1 h, 0 h, +4 h, 200 microg LPS i.p., 15 mice per group. As for the experimental part:
Septic shock was induced in male Balb/c mice (n=15/group) with […] of LPS as described in Material and Methods. hP5 peptide or control were administered at the following time points: −1 h, 0 h, +1 h+4 h. Mortality was followed twice a day for 7 days. Data were analysed using GraphPad Prism Survival curve analysis.
For the experiment, male BALB/c mice (19-21 g) were randomly grouped (15 mice per group) and injected intraperitoneally (i.p.) with 200 microg of LPS from E. coli 0111:B4 (Sigma). A blinded investigator performed all injections. 200 microliters of TREM-1 peptides dissolved in water 10% DMSO, 9% Solutol were administered intraperitoneally at −1 h, 0 h, +1 h, +4 h prior and after LPS injection. Viability of treated mice was monitored twice a day for 7 days.

As for “LQVEDSGLYQCVIYQPP (listed as Homo sapiens) [hP5]”, the “Disease Activity Index (DAI) score” value with mice (3% DSS day 0-6, peptide i.p. daily from day 3, day 5, mean ± standard error) is on record as 1.95±0.170. In addition, the “DAI inhibition compared to DSS+vehicle or DSS+scrambled peptide” value in the test on mice (day 5) was approximately 50%. In the test with mice (day 10, mean ± standard error), the “Stool score (stool consistency)” value stood at 0.71±0.474; the “blood score (haemoccult / gross blood)” value is recorded as 0.43±0.202; the “weight loss, expressed as a score” value is given as 2.00±0.436. In the test on mice (day 11, mean ± standard error), the colon length is reported as 7.41±0.237 cm. Also, in the test with C57BL/6 mice, the “mice alive at 10 days after CLP” value is 66.6% and the “mice surviving at 72 hours after CLP” value is recorded as 73.3%. Besides, in the test on BALB/c mice, the “animals alive 7 days after LPS injection” value amounted to 80%.

The values are drawn from US10603357B2, “Therapeutic TREM-1 peptides” (Universite de Lorraine, priority 2004, dated 2020).
